Assays:
rats [1] = experiment: Passive Avoidance in Rats, an in vivo Test for Learning and Memory; set-up: species or system rat; settings: MK-801 0.1 mg/kg, compared to the vehicle, p<0.001, 24 hours after shock
Protocol: The test was performed as previously described (Zhang, H.-T., Crissman, A. M., Dorairaj, N. R., Chandler, L. J., and O'Donnell, J. M., Neuropsychopharmacology, 2000, 23, 198-204.). The apparatus (Model E10-16SC, Coulbourn Instruments, Allentown, Pa.) consisted of a two-compartment chamber with an illuminated compartment connected to a darkened compartment by a guillotine door. The floor of the darkened compartment consisted of stainless steel rods through which an electric foot-shock could be delivered from a constant current source. All experimental groups were first habituated to the apparatus the day before the start of the experiment. During the training, the rat (Male Spraque-Dawley (Harlan) weighing 250 to 350 g) was placed in the illuminated compartment facing away from the closed guillotine door for 1 minute before the door was raised. The latency for entering the darkened compartment was recorded. After the rat entered the darkened compartment, the door was closed and a 0.5 mA electric shock was administered for 3 seconds. […] The latency for entering the darkened compartment was recorded for up to 180 seconds, at which time the trial was terminated.
(§1) All data were analyzed by analyses of variance (ANOVA); individual comparisons were made using Kewman-Keuls tests. […]

rats [2] = experiment: Radial Arm Maze Task in Rats, an In Vivo Test for Learning and Memory; set-up: species or system rat; settings: MK-801 0.1 mg/kg i.p., compared to control, p<0.01
Protocol: The test was performed as previously described (Zhang, H.-T., Crissman, A. M., Dorairaj, N. R., Chandler, L. J., and O'Donnell, J. M., Neuropsychopharmacology, 2000, 23, 198-204.). Five days after initial housing, rats (male Spraque-Dawley (Harlan) weighing 250 to 350 g) were placed in the eight-arm radial maze (each arm was 60×10×12 cm high; the maze was elevated 70 cm above the floor) for acclimation for two days. Rats were then placed individually in the center of the maze for 5 minutes with food pellets placed close to the food wells, and then, the next day, in the wells at the end of the arms; 2 sessions a day were conducted. Next, four randomly selected arms were then baited with one pellet of food each. The rat was restricted to the center platform (26 cm in diameter) for 15 seconds and then allowed to move freely throughout the maze until it collected all pellets of food or 10 minutes passed, whichever came first. Four parameters were recorded: 1) working memory errors, i.e., entries into baited arms that had already been visited during the same trial; 2) reference memory errors, i.e., entries into unbaited arms; 3) total arm entries; and 4) the test duration (seconds), i.e., the time spent in the collection of all the pellets in the maze. […]
as §1

## C[C@]12N[C@H](Cc3ccccc31)c1ccccc12 [MK-801]
Rats [1]
  latency for entering the darkened compartment: markedly reduced this latency
Rats [2]
  frequencies of working and reference memory errors: increased the frequencies of both working and reference memory errors

— patent US7700631B2, “Phosphodiesterase 4 inhibitors” (Memory Pharmaceuticals Corporation, priority 2002, dated 2010)
